These results are taken from ChEMBL document CHEMBL1201862, “PubChem BioAssay data set” (2004).

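Cells were grown in 96-well plates and exposed to each compound for 48 hours at five concentrations; endpoints were interpolated linearly between bracketing concentrations, or set to the highest concentration if not reached. Here, GI50 denotes the concentration required for 50% inhibition of growth.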 Activity calls are given as the source filed them. No stated cut-off is given here; in the data, active = GI50 up to about 1.1 µM and inactive = higher.

Some test systems named below: U-251; IGROV-1; EKVX; UACC-62; CAKI-1; HT-29; SK-MEL-28; NCI-H23; NCI-H460; SF-539; A549; NCI/ADR-RES; OVCAR-8; Malme-3M; UACC-257; HOP-62; SNB-19; SNB-75; 786-0; SN12C.
What all share (test): NCI anticancer screen, dose series, 48 h

In the case of `CN(CCCCCl)P(=O)(OCc1ccc([N+](=O)[O-])o1)OC[C@H]1O[C@@H](n2cc(F)c(=O)[nH]c2=O)C[C@@H]1O` (stereo not given in full), the GI50 was 1.63 µM (inactive) with U-251; 1.58 µM (inactive) with IGROV-1; 35.4 µM (inactive) in the assay on EKVX; 0.437 µM (active) in the assay on UACC-62; 0.0693 µM (active) with CAKI-1; 0.502 µM (active) with HT-29. Besides, the GI50 is 21.2 µM (inactive) in the assay with SK-MEL-28; 0.989 µM (active) in the assay on NCI-H23; < 0.01 µM (active) in the assay with NCI-H460; < 0.01 µM (active) in the assay on SF-539; 0.0301 µM (active) in the assay on A549; 0.0658 µM (active) with NCI/ADR-RES. Further, the GI50 with OVCAR-8 is 0.352 µM (active); with Malme-3M, 3.25 µM (inactive); in the assay on UACC-257 it was 30.8 µM (inactive); in the assay on HOP-62 it was 0.145 µM (active); with SNB-19 it was 1.85 µM (inactive); in the assay on SNB-75, 0.102 µM (active). In addition, the results for the GI50 with 786-0 and in the assay on SN12C were 0.883 µM (active) and 0.107 µM (active), respectively.
`C[O+]=C1C=CC(=C2SC(c3ccccc3)(c3ccccc3)c3ccccc32)C=C1.[O-][Cl+3]([O-])([O-])[O-]`: the GI50 in the assay on U-251 was 22.6 µM (inactive); in the assay with IGROV-1, 33 µM (inactive); in the assay on EKVX, 17.8 µM (inactive); in the assay with UACC-62, 18.7 µM (inactive); in the assay on CAKI-1, 30.9 µM (inactive); in the assay with HT-29, 15 µM (inactive). Besides, the GI50 in the assay on SK-MEL-28 is 21.1 µM (inactive); with NCI-H23, 21.1 µM (inactive); with NCI-H460, 14 µM (inactive); in the assay on SF-539 it was 18.7 µM (inactive); in the assay on A549, 22.5 µM (inactive); with NCI/ADR-RES, 30.1 µM (inactive). The GI50 is 32.1 µM (inactive) in the assay with OVCAR-8; 18.8 µM (inactive) in the assay with Malme-3M; 16.6 µM (inactive) in the assay with UACC-257; 28 µM (inactive) in the assay on HOP-62; 39.8 µM (inactive) in the assay with SNB-19; 26.9 µM (inactive) in the assay with SNB-75. Moreover, the GI50 in the assay with 786-0 was 17.2 µM (inactive); in the assay on SN12C, 20 µM (inactive).
As for `COc1ccc2c(c1)C(=O)CC1c3cnccc3C(=O)N21` (stereo not given), the GI50 in the assay on U-251 is > 73.5 µM (inactive); with IGROV-1 it was > 85.1 µM (inactive); in the assay on EKVX, > 79.4 µM (inactive); in the assay with UACC-62 it was > 63.7 µM (inactive); with CAKI-1, > 100 µM (inactive); with HT-29 it was > 100 µM (inactive). Further, the GI50 in the assay with SK-MEL-28 was > 91.2 µM (inactive); in the assay on NCI-H23, > 100 µM (inactive); in the assay with NCI-H460 it was > 67.9 µM (inactive); with SF-539 it was > 100 µM (inactive); in the assay with A549, > 100 µM (inactive); in the assay on NCI/ADR-RES, > 100 µM (inactive). The GI50 with OVCAR-8 was > 100 µM (inactive); in the assay on Malme-3M it was > 100 µM (inactive); in the assay with UACC-257, > 100 µM (inactive); in the assay with HOP-62, > 27.8 µM (inactive); in the assay on SNB-19 it was > 72.1 µM (inactive); in the assay with SNB-75, > 100 µM (inactive). For the same molecule, the GI50 with 786-0 and in the assay on SN12C was > 100 µM (inactive) in each case.
On to `COC(OC)(c1ccccc1)C(Br)Br`, for which the GI50 is > 100 µM (inactive) with U-251; 50.8 µM (inactive) with IGROV-1; > 100 µM (inactive) in the assay with EKVX; 55.1 µM (inactive) with UACC-62; 24.6 µM (inactive) in the assay with CAKI-1; 57.4 µM (inactive) with HT-29. The GI50 in the assay on SK-MEL-28 was > 100 µM (inactive); with NCI-H23 it was > 100 µM (inactive); in the assay on NCI-H460, > 100 µM (inactive); in the assay on SF-539, > 10 µM (inactive); in the assay with A549 it was > 100 µM (inactive); with NCI/ADR-RES, 51.8 µM (inactive). In addition, the GI50 in the assay on OVCAR-8 was > 100 µM (inactive); in the assay on Malme-3M, 16.7 µM (inactive); in the assay with UACC-257, > 100 µM (inactive); in the assay with HOP-62 it was > 100 µM (inactive); with SNB-19 it was > 100 µM (inactive); in the assay with SNB-75, 81.1 µM (inactive). Further, the GI50 is 23.2 µM (inactive) in the assay on 786-0 and > 100 µM (inactive) in the assay on SN12C.
Regarding `Cc1cc(N(CCC#N)CCC#N)ccc1/C=C1\SC(=S)NC1=O`, the GI50 with U-251 is 42.5 µM (inactive); in the assay with IGROV-1, 65.3 µM (inactive); in the assay on EKVX, 51.3 µM (inactive); in the assay with UACC-62, 48.6 µM (inactive); in the assay on CAKI-1, 41.4 µM (inactive); with HT-29 it was > 100 µM (inactive). The GI50 is > 100 µM (inactive) in the assay on SK-MEL-28; > 100 µM (inactive) with NCI-H23; 30.3 µM (inactive) with NCI-H460; 69.5 µM (inactive) with SF-539; 62.4 µM (inactive) in the assay with A549; > 100 µM (inactive) with NCI/ADR-RES. The GI50 in the assay with OVCAR-8 is 49.3 µM (inactive); in the assay with Malme-3M, 52.1 µM (inactive); with UACC-257 it was > 100 µM (inactive); in the assay on HOP-62, 22.7 µM (inactive); in the assay with SNB-19, > 100 µM (inactive); in the assay on SNB-75, 11.6 µM (inactive). Besides, the values for the GI50 in the assay on 786-0 and in the assay on SN12C were 74.6 µM (inactive) and > 100 µM (inactive), respectively.
For `O=C1/C(=C/c2cccc([N+](=O)[O-])c2)N=C(c2ccccc2)N1c1nc2ccc(Sc3ccccc3)cc2[nH]1`, the GI50 is 37.3 µM (inactive) in the assay on U-251; 37.8 µM (inactive) with IGROV-1; 62.8 µM (inactive) in the assay with EKVX; 36.1 µM (inactive) with UACC-62; 65.5 µM (inactive) in the assay with CAKI-1; 45.2 µM (inactive) with HT-29. For the same molecule, the GI50 with SK-MEL-28 is 84.7 µM (inactive); in the assay on NCI-H23 it was 46.6 µM (inactive); in the assay with NCI-H460 it was 25 µM (inactive); with SF-539, 57.4 µM (inactive); in the assay with A549 it was 55.2 µM (inactive); in the assay with NCI/ADR-RES, 29.3 µM (inactive). Also, the GI50 in the assay with OVCAR-8 is 45.1 µM (inactive); with Malme-3M it was 63.1 µM (inactive); with UACC-257 it was 42 µM (inactive); with HOP-62, 83 µM (inactive); in the assay on SNB-19 it was 80 µM (inactive); with SNB-75 it was 52.4 µM (inactive). Besides, the results for the GI50 in the assay on 786-0 and in the assay with SN12C were 60.1 µM (inactive) and 60 µM (inactive), respectively.
`Cc1c(N)nc(C2CC(=O)N2CC(N)C(N)=O)nc1C(=O)NC(C(=O)NC(C)C(O)C(C)C(=O)NC(C(=O)NCCc1nc(-c2nc(C(=O)NCCNCC(C)O)cs2)cs1)C(C)O)C(OC1OC(CO)C(O)C(O)C1OC1OC(CO)C(O)C(OC(N)=O)C1O)c1c[nH]cn1` (stereo not given): the GI50 in the assay on U-251 is 1.83 µM (inactive); in the assay with IGROV-1 it was 37.2 µM (inactive); in the assay on EKVX it was > 41.1 µM (inactive); in the assay with UACC-62, 0.441 µM (active); in the assay on CAKI-1, < 0.0426 µM (active); in the assay with HT-29 it was 21.3 µM (inactive). The GI50 is 43.2 µM (inactive) in the assay on SK-MEL-28; 0.437 µM (active) with NCI-H23; 0.1 µM (active) in the assay with NCI-H460; < 0.0295 µM (active) in the assay with SF-539; 3.28 µM (inactive) in the assay on A549; 31 µM (inactive) in the assay on NCI/ADR-RES. Also, the GI50 in the assay on OVCAR-8 was 3.36 µM (inactive); in the assay with Malme-3M it was 0.336 µM (active); in the assay on UACC-257, 0.528 µM (active); in the assay with HOP-62, 0.0556 µM (active); in the assay on SNB-19, 5.38 µM (inactive); in the assay on SNB-75, 0.344 µM (active). Also, the GI50 in the assay on 786-0 was 33.2 µM (inactive); in the assay with SN12C, 1.45 µM (inactive).
